Counter-ions that a name gives are not always drawn.
Key:
[1] = target: T1, PI 3-kinase delta (Homo sapiens, UniProt O00329); test: TR-FRET Adapta assay, assay F; conditions: read-out: Assay F PI3Kδ IC50
[2] = target: mTOR (Homo sapiens, UniProt P42345); test: Lanthascreen kinase binding assay, assay G; conditions: read-out: Assay G mTOR IC50
Protocol: Lanthascreen™ Kinase Binding Assay for mTOR (G)
Binding of an inhibitor to the kinase competes for binding with the tracer, resulting in a loss of FRET.
50 nL of compound dilutions were dispensed onto white 384-well small volume polystyrene plate.

[3] = target: T2, PI 3-kinase alpha (Homo sapiens, UniProt P42336); test: Kinase Glo Luminescent Kinase Assay (Kglo), assay A; format: biochemical; conditions: read-out: Assay A PI3Kα IC50
Target sequence in this assay (P42336 whole entry): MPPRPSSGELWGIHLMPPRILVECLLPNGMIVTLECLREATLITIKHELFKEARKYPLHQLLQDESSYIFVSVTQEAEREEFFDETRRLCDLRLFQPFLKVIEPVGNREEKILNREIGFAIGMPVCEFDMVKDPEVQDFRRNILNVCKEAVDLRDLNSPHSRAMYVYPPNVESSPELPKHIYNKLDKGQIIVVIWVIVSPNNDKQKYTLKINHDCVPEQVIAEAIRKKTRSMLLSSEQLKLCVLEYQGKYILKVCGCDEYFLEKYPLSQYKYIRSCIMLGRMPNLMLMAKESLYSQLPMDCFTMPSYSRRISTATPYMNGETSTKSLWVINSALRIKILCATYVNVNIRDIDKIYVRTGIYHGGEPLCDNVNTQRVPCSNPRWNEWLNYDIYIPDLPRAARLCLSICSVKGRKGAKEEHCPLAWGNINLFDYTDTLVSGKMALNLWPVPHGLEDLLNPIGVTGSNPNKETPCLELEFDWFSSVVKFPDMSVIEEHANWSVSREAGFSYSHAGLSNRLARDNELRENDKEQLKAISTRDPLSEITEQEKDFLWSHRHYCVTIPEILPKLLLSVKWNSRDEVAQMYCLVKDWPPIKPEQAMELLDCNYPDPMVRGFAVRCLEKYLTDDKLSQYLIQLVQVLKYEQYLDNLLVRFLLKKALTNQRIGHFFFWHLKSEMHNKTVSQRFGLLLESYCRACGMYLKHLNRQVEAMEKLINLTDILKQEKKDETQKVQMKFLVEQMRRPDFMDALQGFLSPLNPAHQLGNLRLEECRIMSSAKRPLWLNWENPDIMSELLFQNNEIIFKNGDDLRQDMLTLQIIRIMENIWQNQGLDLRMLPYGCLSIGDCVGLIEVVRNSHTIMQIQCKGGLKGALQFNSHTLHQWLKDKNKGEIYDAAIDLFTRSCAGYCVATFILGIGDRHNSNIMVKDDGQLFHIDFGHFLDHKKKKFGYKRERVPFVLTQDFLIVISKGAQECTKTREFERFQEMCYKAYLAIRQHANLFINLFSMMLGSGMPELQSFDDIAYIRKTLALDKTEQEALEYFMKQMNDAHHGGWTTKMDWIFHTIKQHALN

[4] = target: T3, PI 3-kinase gamma (Homo sapiens, UniProt P48736); test: TR-FRET Adapta assay, assay E; format: biochemical; conditions: read-out: Assay E PI3Kγ IC50
T3 sequence (P48736 whole entry): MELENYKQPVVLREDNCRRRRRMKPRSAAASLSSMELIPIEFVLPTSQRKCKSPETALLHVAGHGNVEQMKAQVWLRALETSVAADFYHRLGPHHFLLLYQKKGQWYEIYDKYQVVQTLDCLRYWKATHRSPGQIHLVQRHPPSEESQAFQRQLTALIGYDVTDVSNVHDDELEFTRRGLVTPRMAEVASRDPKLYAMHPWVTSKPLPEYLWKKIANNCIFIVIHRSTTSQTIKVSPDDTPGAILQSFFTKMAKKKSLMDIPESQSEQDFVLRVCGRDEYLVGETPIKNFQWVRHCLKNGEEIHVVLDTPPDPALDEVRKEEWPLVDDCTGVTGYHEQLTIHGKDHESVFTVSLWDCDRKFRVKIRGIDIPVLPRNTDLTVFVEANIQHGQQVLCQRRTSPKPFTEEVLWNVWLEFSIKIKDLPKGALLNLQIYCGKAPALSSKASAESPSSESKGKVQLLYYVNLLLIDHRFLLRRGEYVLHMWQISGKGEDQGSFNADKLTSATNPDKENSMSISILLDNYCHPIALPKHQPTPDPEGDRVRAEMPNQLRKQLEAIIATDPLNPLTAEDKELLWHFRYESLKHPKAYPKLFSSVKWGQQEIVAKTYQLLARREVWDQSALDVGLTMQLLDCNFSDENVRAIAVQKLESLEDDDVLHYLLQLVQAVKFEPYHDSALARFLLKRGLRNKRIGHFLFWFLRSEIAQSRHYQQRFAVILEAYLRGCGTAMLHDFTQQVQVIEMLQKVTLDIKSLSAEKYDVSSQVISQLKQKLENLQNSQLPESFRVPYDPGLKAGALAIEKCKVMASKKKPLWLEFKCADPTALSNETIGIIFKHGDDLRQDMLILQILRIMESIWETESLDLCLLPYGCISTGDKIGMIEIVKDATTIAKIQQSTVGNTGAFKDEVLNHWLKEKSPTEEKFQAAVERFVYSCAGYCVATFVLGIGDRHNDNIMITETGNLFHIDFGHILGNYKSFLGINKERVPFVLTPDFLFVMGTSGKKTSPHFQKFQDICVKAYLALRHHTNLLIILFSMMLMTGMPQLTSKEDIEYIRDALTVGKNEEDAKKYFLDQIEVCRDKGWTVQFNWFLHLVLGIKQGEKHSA

[5] = Microsomal clearance assay (M); conditions: intrinsic clearance in rat liver microsomes
Protocol: The experiments were performed in 96-well glass plates at 37° C. on an automated Tecan EVO platform. Test compounds at a concentration of 10 mM in pure DMSO were diluted 1:1000 in water to 10 μM. […] Reactions were initiated by the addition of 150 μL of a cofactor solution containing 2 mM NADPH.

[6] = target: Vps34 (Homo sapiens, UniProt Q8NEB9); test: Kinase Glo Luminescent Kinase Assay (Kglo), assay C; format: biochemical; conditions: read-out: Assay C VPS34 IC50
Chain of Vps34 (Q8NEB9 whole entry, species assumed): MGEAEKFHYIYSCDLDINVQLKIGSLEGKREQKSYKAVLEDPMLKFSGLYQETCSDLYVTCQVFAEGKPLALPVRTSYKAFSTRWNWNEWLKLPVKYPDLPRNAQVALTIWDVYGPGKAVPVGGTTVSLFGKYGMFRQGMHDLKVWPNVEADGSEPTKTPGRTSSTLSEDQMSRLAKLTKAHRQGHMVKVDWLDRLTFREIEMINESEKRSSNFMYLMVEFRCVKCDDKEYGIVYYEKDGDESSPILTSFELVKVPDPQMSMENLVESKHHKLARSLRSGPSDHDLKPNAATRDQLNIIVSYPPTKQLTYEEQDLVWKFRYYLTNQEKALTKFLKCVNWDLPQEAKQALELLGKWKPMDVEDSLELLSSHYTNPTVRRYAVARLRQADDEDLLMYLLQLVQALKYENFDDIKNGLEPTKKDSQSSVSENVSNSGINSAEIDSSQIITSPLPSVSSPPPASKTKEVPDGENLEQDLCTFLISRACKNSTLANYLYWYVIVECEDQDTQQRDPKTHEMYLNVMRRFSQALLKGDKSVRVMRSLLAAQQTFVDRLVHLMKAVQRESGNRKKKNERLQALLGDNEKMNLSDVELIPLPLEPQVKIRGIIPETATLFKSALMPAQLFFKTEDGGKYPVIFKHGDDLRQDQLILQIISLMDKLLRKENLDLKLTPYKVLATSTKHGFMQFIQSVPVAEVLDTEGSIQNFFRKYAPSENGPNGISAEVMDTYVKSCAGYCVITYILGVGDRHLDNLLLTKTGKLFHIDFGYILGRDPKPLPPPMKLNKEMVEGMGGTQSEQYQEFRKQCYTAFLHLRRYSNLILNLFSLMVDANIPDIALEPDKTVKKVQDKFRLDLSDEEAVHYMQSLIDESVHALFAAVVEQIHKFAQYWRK

[7] = test system: IL-8-induced neutrophil shape change in human whole blood; test: Whole blood neutrophil shape change assay (L); format: cell-based; conditions: Homo sapiens, Neutrophil, IL-8, human whole blood, read-out: Assay L WBSC IC50
Protocol: Whole Blood Neutrophil Shape Change Assay (L)
IL-8 was made up to 2 μM stocks in 0.1% bovine serum albumin/PBS and stored at −80° C. On the day IL-8 was diluted in PBS (phosphate buffered saline) 10 minutes before use. IL-8 was used at final concentration of 2 nM and a concentration range from 0.003 to 200 nM for the donor dose response curve.
Assay fixative solution was prepared fresh each day from 10× concentrated CellFIX™ solution diluted 1:10 in sterile distilled water and then 1:4 with PBS. Assay fixative solution was kept on ice prior to use.
A 10× lysis buffer was prepared in advance by dissolving 20.75 g NH4Cl and 2.5 g KHCO3 in 250 ml sterile H2O. This 10× lysis buffer was filtered under sterile conditions and stored for up to two weeks at 4° C. On the day a 1× lysis solution was prepared with sterile distilled H2O and kept on ice prior to use.
The test compounds were prepared as 10 mM stock solutions in 100% DMSO and were stored at 4° C. Once in use for an assay 10 mM stock compounds were thawed and stored at RT protected from light. Compound dilutions were prepared fresh on the day. The first series of dilutions in 100% DMSO were done first thing in the morning. Only once blood had been collected and arrived in laboratory was the next set of dilutions into PBS carried out (1:10 PBS, 10% DMSO). This limited the exposure of diluted compound to plastic and made sure the exposure timing was consistent between assays.
Compound dilutions in 100% DMSO were prepared as described previously. Human whole blood was collected in K2 EDTA Vacutainers. Once blood was in the laboratory, compound dilutions into PBS were carried out as described previously and depicted in Table 1.
The outer wells of the deep well assay plate were filled with 1200 μl of sterile distilled H2O in an effort to limit edge effects (rows A1-H1, A1-A12, A12-H12).
An IL-8 dose response was determined for each blood donor examined, to monitor the donor response to IL-8. At this step in assay preparation for the IL-8 dose response samples 10 μl of PBS was added to designated wells. In addition the assay window without DMSO was also assessed each day. For such samples at this step in assay preparation 10 μl of PBS was added in the place of 10% DMSO.
Lids were placed on the 96 well plates and samples were incubated for 15 minutes at 37° C. in a water-bath.
Following the compound pre-incubation 10× final IL-8 was added to appropriate wells (10 μl of 20 nM working stock IL-8, final IL-8 concentration in blood=2 nM) and 10 μl of PBS was added to the un-stimulated controls. 10× final dose response range IL-8 was also added to designated wells (final concentration range on assay plate was 200 nM to 0.0005 nM, 1:5 serial dilution in PBS). The IL-8 and PBS were added to appropriate wells across all assay plates in the same sequence as the blood to compound addition. […] Samples were incubated for 5 minutes at 37° C. in a water-bath. Following the incubation sample plates were transferred to ice where 250 μl of chilled Assay Fixative Buffer was added promptly to all wells.
Samples were incubated on ice for 7 minutes (no mixing). […] Once added samples were mixed once and incubated on ice for 30 minutes to achieve uniform red blood cells lysis. After lysis, 200 μl of sample was transferred to a 96 well microplate on ice. […] Granulocytes were identified based on differential side scatter (SSC) and forward scatter (FSC) characteristics.

[8] = target: PI 4-kinase beta (Homo sapiens, UniProt Q9UBF8); test: Kinase Glo Luminescent Kinase Assay (Kglo), assay D; format: biochemical; conditions: read-out: Assay D PI4Kβ IC50
Chain of PI 4-kinase beta (Q9UBF8 whole entry): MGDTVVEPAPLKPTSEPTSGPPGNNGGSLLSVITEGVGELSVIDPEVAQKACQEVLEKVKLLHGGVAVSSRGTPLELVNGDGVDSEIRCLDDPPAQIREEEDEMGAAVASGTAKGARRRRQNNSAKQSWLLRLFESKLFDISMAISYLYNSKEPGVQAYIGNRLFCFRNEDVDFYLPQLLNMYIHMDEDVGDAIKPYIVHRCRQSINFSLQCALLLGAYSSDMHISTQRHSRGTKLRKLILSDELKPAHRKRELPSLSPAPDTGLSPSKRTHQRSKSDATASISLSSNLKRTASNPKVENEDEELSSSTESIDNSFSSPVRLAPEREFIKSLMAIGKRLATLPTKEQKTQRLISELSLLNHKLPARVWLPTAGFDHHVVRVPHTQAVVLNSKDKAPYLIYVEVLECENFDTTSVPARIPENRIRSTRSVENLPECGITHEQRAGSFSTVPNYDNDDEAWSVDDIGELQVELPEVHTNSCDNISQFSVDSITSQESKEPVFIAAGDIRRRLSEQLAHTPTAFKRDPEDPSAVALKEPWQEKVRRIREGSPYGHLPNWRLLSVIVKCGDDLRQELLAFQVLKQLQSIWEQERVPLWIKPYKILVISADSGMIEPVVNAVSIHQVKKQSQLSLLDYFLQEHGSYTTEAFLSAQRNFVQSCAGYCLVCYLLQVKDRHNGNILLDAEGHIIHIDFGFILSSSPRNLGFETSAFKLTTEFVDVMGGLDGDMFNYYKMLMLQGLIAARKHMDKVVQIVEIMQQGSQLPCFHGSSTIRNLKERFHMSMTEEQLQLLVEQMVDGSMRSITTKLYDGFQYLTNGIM

[9] = target: T3, PI 3-kinase gamma; test: Cellular U937 AKT assay K1 (MSD); format: cell-based; conditions: U937 cells, K1 format; read-out: Assay K1 PI3Kγ IC50
[10] = target: T4, PI 3-kinase beta (Homo sapiens, UniProt P42338); test: Kinase Glo Luminescent Kinase Assay (Kglo), assay B; format: biochemical; conditions: read-out: Assay B PI3Kβ IC50
[11] = target: T2, PI 3-kinase alpha; test: Cellular assay H1, p-Akt (S473) in Rat-1 cells, Surefire format; format: cell-based; conditions: non-asterisked data: version H1 (Surefire format), Rat-1 cells; read-out: Assay H PI3Kα IC50
Target sequence in this assay (P42336 whole entry): as the sequence (P42336 whole entry) above
Target sequence in this assay (Q63787 whole entry partner): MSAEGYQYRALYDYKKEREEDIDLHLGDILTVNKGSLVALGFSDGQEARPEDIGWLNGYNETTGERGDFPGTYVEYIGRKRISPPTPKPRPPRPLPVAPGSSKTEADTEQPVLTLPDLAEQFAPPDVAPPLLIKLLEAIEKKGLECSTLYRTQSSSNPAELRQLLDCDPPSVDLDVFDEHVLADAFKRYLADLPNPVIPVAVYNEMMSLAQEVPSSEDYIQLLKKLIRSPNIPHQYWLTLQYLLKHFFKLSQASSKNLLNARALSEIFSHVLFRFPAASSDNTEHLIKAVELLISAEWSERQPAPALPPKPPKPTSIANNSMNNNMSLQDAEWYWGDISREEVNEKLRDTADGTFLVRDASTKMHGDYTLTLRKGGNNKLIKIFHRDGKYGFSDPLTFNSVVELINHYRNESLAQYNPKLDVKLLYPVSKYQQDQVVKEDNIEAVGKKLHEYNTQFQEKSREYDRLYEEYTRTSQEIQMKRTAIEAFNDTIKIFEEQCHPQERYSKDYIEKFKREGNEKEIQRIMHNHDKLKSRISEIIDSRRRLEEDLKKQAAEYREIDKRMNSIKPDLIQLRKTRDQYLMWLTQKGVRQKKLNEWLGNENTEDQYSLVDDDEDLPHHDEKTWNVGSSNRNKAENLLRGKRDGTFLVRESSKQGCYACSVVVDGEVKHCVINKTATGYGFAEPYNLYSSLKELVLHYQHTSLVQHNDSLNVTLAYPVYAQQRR

[12] = target: T1, PI 3-kinase delta; test: Cellular assay J1, p-Akt (S473) in Rat-1 cells, Surefire format; format: cell-based; conditions: non-asterisked data: version J1 (Surefire format), Rat-1 cells; read-out: Assay J PI3Kδ IC50
[13] = target: T4, PI 3-kinase beta; test: Cellular assay I1, p-Akt (S473) in Rat-1 cells, Surefire format; format: cell-based; conditions: non-asterisked data: version I1 (Surefire format), Rat-1 cells; read-out: Assay I PI3Kβ IC50

SMILES	IC50 [1]	IC50 [2]	IC50 [3]	IC50 [4]	Assay M RLM CI(int) [5]	IC50 [6]	IC50 [7]	IC50 [8]	IC50 [9]	IC50 [10]	IC50 [11]	IC50 [12]	IC50 [13]
Cc1ccc(S(=O)(=O)NCCC(C)(C)O)cc1-c1cnc(N)c(-c2ccc(C3CC3)s2)n1 [Example 119.46]	70 nM	6700 nM	250 nM	110 nM	122 µL/min/mg	> 9100 nM	9190 nM	610 nM	81 nM				
Cc1ccc(S(=O)(=O)NC[C@H]2CCCO2)cc1-c1cnc(N)c(-n2cncn2)n1 [Example 127.14]	900 nM	9000 nM	920 nM	69 nM		> 10000 nM	1790 nM	8450 nM	645 nM	2600 nM			
Cc1ccc(S(=O)(=O)NCC2CCCOC2)cc1-c1cnc(N)c(-n2cncn2)n1 (stereo not drawn) [Example 127.19]	620 nM	> 10000 nM	260 nM	61 nM		> 10000 nM	1620 nM	3900 nM	153 nM	1300 nM			
Cc1ccc(S(=O)(=O)NC[C@H]2CCOC2)cc1-c1cnc(N)c(-n2cncn2)n1 [Example 127.27]	790 nM	9600 nM	200 nM	26 nM		> 10000 nM	1090 nM	8700 nM	242 nM	1800 nM			
Cc1ccc(S(=O)(=O)NCCC2(O)CCCC2)cc1-c1cnc(N)c(-n2cncn2)n1 [Example 127.36]	790 nM	7600 nM	190 nM	24 nM		> 10000 nM	3850 nM	5300 nM	126 nM	1900 nM			
Cc1ccc(S(=O)(=O)NCC(C)(F)F)cc1-c1cnc(N)c(-n2cncn2)n1 [Example 127.43]	3400 nM	8800 nM	560 nM	95 nM		> 10000 nM	1640 nM	2900 nM	275 nM	1700 nM			
Cc1ccc(S(=O)(=O)NCC2(O)COC2)cc1-c1cnc(N)c(-n2cncn2)n1 [Example 127.47]	3200 nM	> 10000 nM	1100 nM	60 nM		> 10000 nM	2180 nM	6600 nM	266 nM	2200 nM			
Cc1ccc(S(=O)(=O)NCC2(C(N)=O)CC2)cc1-c1cnc(N)c(-n2cncn2)n1 [Example 127.56]	1400 nM	7400 nM	420 nM	73 nM	25 µL/min/mg	> 10000 nM	715 nM	> 10000 nM		1200 nM	9610 nM	6000 nM	3560 nM
Cc1ccc(S(=O)(=O)NC[C@@H]2CCNC2)cc1-c1cnc(N)c(-n2cncn2)n1 [Example 127.57, (R)-3-(5-amino-6-(1H-1,2,4-triazol-1-yl)pyrazin-2-yl)-4-methyl-N-(pyrrolidin-3-ylmethyl)benzenesulfonamide trifluoroacetic acid salt]	760 nM	5000 nM	1400 nM	50 nM	21 µL/min/mg	> 10000 nM	13800 nM	5900 nM		730 nM	> 10000 nM	> 10000 nM	> 10000 nM
COCCCNS(=O)(=O)c1ccc(C)c(-c2cnc(N)c(-c3ccnc(C)c3)n2)c1 [Example 129.11, 3-(5-amino-6-(2-methylpyridin-4-yl)pyrazin-2-yl)-N-(3-methoxypropyl)-4-methylbenzenesulfonamide]	790 nM	> 9100 nM	640 nM	173 nM	105 µL/min/mg	> 9100 nM	5680 nM	> 9100 nM		> 9100 nM	2730 nM	3330 nM	8380 nM

From patent US10004732B2 (Novartis AG, priority 2014, dated 2018)
